Biological target: Cannabinoid receptor 1 (Rattus norvegicus, UniProt P20272)
Experiment: Binding Assay
Details: pH 7.4; 25 °C
Description: CB1 competitive assay were performed in rat cerebellar membranes using [3H]WIN 55212-2 from Perkin-Elmer as a radioligand.

Chain of Cannabinoid receptor 1 (P20272 whole entry): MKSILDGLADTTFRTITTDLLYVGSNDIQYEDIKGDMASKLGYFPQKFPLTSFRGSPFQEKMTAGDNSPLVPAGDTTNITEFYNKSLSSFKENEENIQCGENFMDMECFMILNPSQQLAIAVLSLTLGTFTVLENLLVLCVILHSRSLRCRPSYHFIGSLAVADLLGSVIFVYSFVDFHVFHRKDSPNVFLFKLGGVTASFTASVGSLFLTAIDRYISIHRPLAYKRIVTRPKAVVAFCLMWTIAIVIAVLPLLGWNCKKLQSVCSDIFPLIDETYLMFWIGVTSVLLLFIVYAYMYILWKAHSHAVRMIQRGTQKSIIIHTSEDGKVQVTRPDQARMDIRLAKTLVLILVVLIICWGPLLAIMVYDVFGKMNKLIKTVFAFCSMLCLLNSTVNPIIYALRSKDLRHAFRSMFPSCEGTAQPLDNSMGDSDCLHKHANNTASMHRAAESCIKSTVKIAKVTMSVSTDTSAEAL

Row | Structure (SMILES) | Ki [nM]
1 | COc1ccc(/N=C2\C(=O)N(CCN3CCOCC3)c3ccc(C)cc32)cc1 [5-Substituted derivative, 3] | 390
2 | Cc1ccc(NCc2cn(CCN3CCOCC3)c3ccccc23)cc1 [4-methyl-N-({1-[2-(morpholin-4-yl)ethyl]-1H-indol-3-yl}methyl)aniline, 10] | 15.7
3 | Clc1ccc(NCc2cn(CCN3CCOCC3)c3ccccc23)cc1 [4-chloro-N-({1-[2-(morpholin-4-yl)ethyl]-1H-indol-3-yl}methyl)aniline, 9] | 24.1
4 | COc1ccc(/N=C2\C(=O)N(CCN3CCOCC3)c3ccc(Cl)cc32)cc1 [5-Substituted derivative, 2] | 74.6
5 | COc1ccc(NCc2cn(CCN3CCOCC3)c3ccccc23)cc1 [4-methoxy-N-({1-[2-(morpholin-4-yl)ethyl]-1H-indol-3-yl}methyl)aniline, 7] | 42.6
6 | O=C1/C(=N\c2cccc3ccccc23)c2cc(Cl)ccc2N1CCN1CCOCC1 [5-Substituted derivative, 5] | 8.4
7 | O=C1/C(=N\c2cccc3ccccc23)c2ccccc2N1CCN1CCOCC1 [3-(Arylimino)-1-(2-morpholin-4-yl-ethyl)-1,3-dihydro-indole-2-one, 4] | 553
8 | c1ccc2c(NCc3cn(CCN4CCOCC4)c4ccccc34)cccc2c1 [N-({1-[2-(morpholin-4-yl)ethyl]-1H-indol-3-yl}methyl)naphthalen-1-amine, 8] | 49.4
9 | Cc1ccc2c(c1)/C(=N/c1cccc3ccccc13)C(=O)N2CCN1CCOCC1 [5-Substituted derivative, 6] | 69.6
10 | COc1ccc(/N=C2\C(=O)N(CCN3CCOCC3)c3ccccc32)cc1 [3-(Arylimino)-1-(2-morpholin-4-yl-ethyl)-1,3-dihydro-indole-2-one, 1] | 311

Source: BindingDB's records for doi:10.1111/j.1747-0285.2009.00910.x (Universit&Agrave, 2010)
